One experiment concerns HER2+ PANC-1 xenograft. Description: PANC-1 xenograft tumor growth. The note with it: 25 mg/kg IP, 52 days; p<0.0001. Format: in vivo, NSG mice. The source says:
Cell Cycle Protein Expression. Cell Cycle Antibody Array (FullMoon BioSystems Inc, catalogue number: ACC:058), a high throughput ELISA based antibody array, designed for qualitative/semi-quantitative protein expression profiling was employed to investigate the protein changes after drug treatment. PANC-1 cells were lysed in buffer containing protease and phosphatase inhibitors (Cell Signaling, catalog number: 9803S). Total protein content was quantified by Bradford assay and equal amounts of proteins were analyzed in duplicate with arrays containing 4 to 6 spots for each of 60 probes (ACC058, Cell Cycle Antibody Array; Full Moon Biosystems, Sunnyvale, Calif.), according to manufacturer's instructions. After background correction, mean signal intensities were measured using FullMoon Inc's imaging services. Protein expressions in both the naïve and 328 treatment group was normalized to GAPDH signals. Confocal Analysis of Septin Disarrangement. To determine the impact of UR214-9 treatment on Septin-2 structure in cells, PANC-1 or JIMT-1 cells were seeded on glass slides and allowed to adhere overnight. The media was replaced with complete DMEM media supplemented with DMSO or UR214-9 (1 μM and 70 nM) and cells were incubated for 48 hours. […] The cells were stained with fluorescence linked secondary antibody for 1 hr under dark. […] Five cells were outlined and analyzed per field. […]

For a further experiment, the system named is septin-9. Description: Immunoblot of septin-9 expression. The format is cell-based. The note with it: 48 hours. (A western blot detects proteins with antibodies after separation by electrophoresis.)

Take `O=C(Nc1cc(Cl)nc(Cl)c1)Nc1cccc(SC(F)(F)F)c1F` [UR214-9]: the xenograft tumor growth result with HER2+ PANC-1 xenograft is “significantly delayed growth”. For the same compound, the “septin-9 protein expression levels (western blot)” value in the experiment with septin-9 (MDA-MB-231, JIMT-1 and MCF-7 cells, 10 and 30 μM) was “does not alter the protein expression levels”. In addition, the “septin-9 expression (immunoblot)” value in the experiment on septin-9 (PANC-1, 1.0 and 10.0 μM) was “completely inhibited”.
